The values that follow come from patent US20240239752A1, “BICYCLIC HETEROAROMATIC INHIBITORS OF KLK5” (BioCryst Pharmaceuticals, Inc., priority 2021, published 2024).

Where only a bound is given, the exact number is not on record here.

The target of the experiment is T1, recombinant human KLK5 (Homo sapiens, UniProt Q9Y337).
T1 construct: purchased Novoprotein or R&D Systems C415 or 1108-SE
T1 sequence (Q9Y337 23-293): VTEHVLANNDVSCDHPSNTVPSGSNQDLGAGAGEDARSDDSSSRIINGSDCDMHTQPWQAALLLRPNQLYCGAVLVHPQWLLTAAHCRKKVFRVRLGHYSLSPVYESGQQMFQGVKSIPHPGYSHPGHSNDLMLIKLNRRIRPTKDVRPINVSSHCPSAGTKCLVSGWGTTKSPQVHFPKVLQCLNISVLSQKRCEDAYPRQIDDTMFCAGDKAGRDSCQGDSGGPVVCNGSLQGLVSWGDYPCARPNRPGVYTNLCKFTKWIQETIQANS
As to the kind of experiment: Kallikrein (KLK) 5 enzymatic assay (Boc-VPR-AMC fluorogenic substrate). The class given is biochemical. The following applies: recombinant human KLK5 0.1 μg/well, Boc-VPR-AMC 100 μM, pH 7.5, room temperature, 1% DMSO; tested a minimum of three times. In outline:
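Fluorogenic rate assay at pH 7.5 (0.1 M NaH2PO4, 1% DMSO, room temperature), run at least three times per compound. Compound was premixed with 0.1 μg/well recombinant human KLK5 before adding 100 μM Boc-VPR-AMC; AMC release was read at ex 380/em 460 nm, and IC50 derived from inhibition of rate vs DMSO control.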
As usually defined, the IC50 is the concentration that gives 50% inhibition. Turning to `CCOC(=O)N1CCC(n2nc(COc3ccccc3CC(=O)O)c3cc(-c4cccc5c(N)nccc45)ccc32)C1` (stereo not drawn) [Compound 311b, 2-(2-((5-(1-aminoisoquinolin-5-yl)-1-(1-(ethoxycarbonyl)pyrrolidin-3-yl)-1H-indazol-3-yl)methoxy)phenyl)acetic acid], the half-inhibitory concentration (IC50) was below 1000 nM. On to `CCS(=O)(=O)N1CCC(n2nc(COc3ccccc3CC(=O)O)c3cc(-c4ccc5ccnc(N)c5c4)ccc32)C1` (stereo not drawn) [Compound 312c, 2-(2-((5-(1-aminoisoquinolin-7-yl)-1-(1-(ethylsulfonyl)pyrrolidin-3-yl)-1H-indazol-3-yl)methoxy)phenyl)acetic acid], for which the IC50 was below 1000 nM. As to `CCS(=O)(=O)N1CCC(n2nc(COc3ccccc3CC(=O)O)c3cc(-c4cccc5c(N)nccc45)ccc32)C1` (stereo not drawn) [Compound 313b, 2-(2-((5-(1-aminoisoquinolin-5-yl)-1-(1-(ethylsulfonyl)pyrrolidin-3-yl)-1H-indazol-3-yl)methoxy)phenyl)acetic acid], the IC50 is below 1000 nM. In the case of `COc1c(CN)cccc1-c1cc(OC)c2occ(COc3ccccc3CC(=O)O)c2c1` [Compound 324d, 2-(2-((5-(3-(aminomethyl)-2-methoxyphenyl)-7-methoxybenzofuran-3-yl)methoxy)phenyl)acetic acid], the IC50 was above 10000 nM. In the case of `COc1c(CN)cccc1-c1ccc2c(c1)c(COc1ccccc1CC(=O)O)nn2C(C)C` [Compound 325b, 2-(2-((5-(3-(aminomethyl)-2-methoxyphenyl)-1-isopropyl-1H-indazol-3-yl)methoxy)phenyl)acetic acid], the IC50 was below 1000 nM. In the case of `COc1c(-c2ccc3c(c2)c(COc2ccccc2CC(=O)O)nn3C(C)C)ccnc1CN` [Compound 326d, 2-(2-((5-(2-(aminomethyl)-3-methoxypyridin-4-yl)-1-isopropyl-1H-indazol-3-yl)methoxy)phenyl)acetic acid] it was below 1000 nM. Next, `COc1c(-c2ccc3c(c2)c(COc2ccccc2CC(=O)O)nn3C2CCCC2)ccnc1CN` [Compound 327d, 2-(2-((5-(2-(aminomethyl)-3-methoxypyridin-4-yl)-1-cyclopentyl-1H-indazol-3-yl)methoxy)phenyl)acetic acid]: below 1000 nM; `COc1c(-c2ccc3c(c2)c(COc2ccccc2CC(=O)O)nn3C2CCC2)ccnc1CN` [Compound 328d, 2-(2-((5-(2-(aminomethyl)-3-methoxypyridin-4-yl)-1-cyclobutyl-1H-indazol-3-yl)methoxy)phenyl)acetic acid]: 1000 to 10000 nM. Regarding `COc1c(-c2cc3c(COc4ccccc4CC(=O)O)cccc3o2)ccnc1CN` [Compound 329d, 2-(2-((2-(2-(aminomethyl)-3-methoxypyridin-4-yl)benzofuran-4-yl)methoxy)phenyl)acetic acid], the concentration for half-maximal inhibition (IC50) was 1000 to 10000 nM. With `CCOC(=O)N1CC[C@@H](n2nc(COc3ccccc3CC(=O)O)c3cc(-c4cccc5c(N)nccc45)ccc32)C1` [Compound 340i, (R)-2-(2-((5-(1-aminoisoquinolin-5-yl)-1-(1-(ethoxycarbonyl)pyrrolidin-3-yl)-1H-indazol-3-yl)methoxy)phenyl)acetic acid], the IC50 was below 1000 nM. In the case of `CCOC(=O)N1CC[C@@H](n2nc(COc3cccc(C)c3CC(=O)O)c3cc(-c4cccc5c(N)nccc45)ccc32)C1` [Compound 341e, (R)-2-(2-((5-(1-aminoisoquinolin-5-yl)-1-(1-(ethoxycarbonyl)pyrrolidin-3-yl)-1H-indazol-3-yl)methoxy)-6-methylphenyl)acetic acid], the IC50 is below 1000 nM. `CCOC(=O)N1CC[C@@H](n2nc(COc3ccccc3CC(=O)O)c3cc(-c4ccc5ccnc(N)c5c4)ccc32)C1` [Compound 342b, (R)-2-(2-((5-(1-aminoisoquinolin-7-yl)-1-(1-(ethoxycarbonyl)pyrrolidin-3-yl)-1H-indazol-3-yl)methoxy)phenyl)acetic acid]: the 50% inhibitory concentration (IC50) was below 1000 nM.
